Measured values reported in PubChem BioAssay AID652144 (Broad Institute, 2013).
Records with an inconclusive call do not appear. Activity calls are given as the source filed them. No rule for the calls is given here.

Experiments:
Assay in all cases: viability reduction measured by resazurin – cell-based, Alamar Blue fluorescence, multiple timepoints, mechanism study for HRAS target identification project, profiling panel (AID 652144)
Conditions in all cases: Cancer/normal cell panel viability, 8-48 h
SR = test system: SR
LOX-IMVI = test system: LOX-IMVI
HT-29 = test system: HT-29
C2C12 = test system: C2C12
HeLA = test system: HeLA
SNB-19 = test system: SNB-19
SNB-75 = test system: SNB-75
CCRF-CEM = test system: CCRF-CEM
U-251 = test system: U-251
HUVEC = test system: HUVEC

SMILES | AC50 (SR) | AC50 (LOX-IMVI) | AC50 (HT-29) | AC50 (C2C12) | AC50 (HeLA) | AC50 (SNB-19) | AC50 (SNB-75) | AC50 (CCRF-CEM) | AC50 (U-251) | outcome (SR) | outcome (LOX-IMVI) | outcome (HT-29) | outcome (C2C12) | outcome (HeLA) | outcome (SNB-19) | outcome (SNB-75) | outcome (HUVEC) | outcome (CCRF-CEM) | outcome (U-251) | AC50 (HUVEC)
C#CCCCC(=O)NCCOCCOCCOc1ccc(N(C(=O)CCl)C(C(=O)NCCc2ccccc2)c2cccs2)cc1Cl (centres undefined) | 885 nM | 421 nM | 2860 nM | 5420 nM | 4490 nM | 4450 nM | 3560 nM | 997 nM | 6810 nM | – | – | – | – | – | – | – | – | – | – | –
Cc1onc(C(=O)N2CCN(C(c3ccncc3)c3ccncc3)CC2)c1[N+](=O)[O-] | – | – | – | – | – | – | – | – | – | inactive | inactive | inactive | inactive | inactive | inactive | inactive | inactive | inactive | inactive | –
CCC(=O)N(c1ccc(OC)c(Cl)c1)C(C(=O)NCCc1ccccc1)c1cccs1 (centres undefined) | – | – | > 70000 nM (inactive) | – | > 70000 nM (inactive) | – | – | – | – | – | inactive | – | – | – | inactive | – | – | – | inactive | –
CC(C)(C)OC(=O)NCCOCCOCCOc1ccc(N(C(=O)CCl)C(C(=O)NCCc2ccccc2)c2cccs2)cc1Cl (centres undefined) | 95.1 nM | 83.4 nM | 457 nM | 442 nM | 650 nM | 1720 nM | 686 nM | 86.5 nM | 1350 nM | – | – | – | – | – | – | – | – | – | – | 13700 nM
COC(=O)c1ccc([C@@H]2c3[nH]c4ccccc4c3C[C@@H](C(=O)OC)N2C(=O)CCl)cc1 | 32.9 nM | 31 nM | 177 nM | 101 nM | 573 nM | – | 355 nM | 50.2 nM | 1060 nM | – | – | – | – | – | – | – | – | – | – | –
Cc1onc(C(=O)N2CCN(C(c3ccc(Cl)cc3)c3ccc(Cl)cc3)CC2)c1[N+](=O)[O-] | 142 nM | 103 nM | 963 nM | – | – | – | 687 nM | 144 nM | > 70000 nM (inactive) | – | – | – | – | – | – | – | inactive | – | – | –
COc1ccc(N(C(=O)CCl)C(C(=O)NCCc2ccccc2)c2cccs2)cc1Cl (centres undefined) | 61.8 nM | 40.5 nM | 162 nM | 842 nM | 547 nM | 1170 nM | 286 nM | 78.5 nM | 896 nM | – | – | – | – | – | – | – | – | – | – | 8940 nM
